Organism: Rattus norvegicus
Test: Open TG-GATES - Regimen: Daily Repeat
Type: toxicity, organism-based, Sprague-Dawley
Parameters: regimen Daily Repeat, gender Male, age 6 weeks
Conditions: in vivo, iv, 6 mg/kg, route intravenous injection, dose level Middle; for APTT / Bas / Eos / Fbg / Hb / Ht / Lym / MCH / MCHC / MCV / Mono / Neu / PT / Plat / RBC / Ret / WBC: tissue Blood; for KIDNEY_L / KIDNEY_R / KIDNEY_TOTAL: tissue Kidney; for LIVER: tissue Liver; for A/G / ALP / ALT / AST / BUN / CRE / Ca / Cl / DBIL / GLC / IP / K / LDH / Na / PL / RALB / TBIL / TC / TG / TP / gamma-GTP: tissue Plasma

NCCBr [BROMOETHANAMINE]
TERMINAL_BW (72 h, time 3 day): 227.7 g
APTT (72 h, time 3 day): 22.4 s
Bas (72 h, time 3 day): 0%
Eos (72 h, time 3 day): 1%
Fbg (72 h, time 3 day): 318.4 mg/dL
Hb (72 h, time 3 day): 13.8 g/dL
Ht (72 h, time 3 day): 40%
Lym (72 h, time 3 day): 83.6%
MCH (72 h, time 3 day): 21.2 pg
MCHC (72 h, time 3 day): 34.4%
MCV (72 h, time 3 day): 61.7 fL
Mono (72 h, time 3 day): 2%
Neu (72 h, time 3 day): 12.2%
PT (72 h, time 3 day): 16.2 s
Plat (72 h, time 3 day): 121.7 x10_4/uL
RBC (72 h, time 3 day): 648 x10_4/ul
Ret (72 h, time 3 day): 4.6%
WBC (72 h, time 3 day): 75.6 x10_2/uL
KIDNEY_L (72 h, time 3 day): 1 g
KIDNEY_R (72 h, time 3 day): 1 g
KIDNEY_TOTAL (72 h, time 3 day): 2 g
LIVER (72 h, time 3 day): 10.9 g
A/G (72 h, time 3 day): 1.3
ALP (72 h, time 3 day): 1767.4 IU/L
ALT (72 h, time 3 day): 39.6 IU/L
AST (72 h, time 3 day): 69 IU/L
BUN (72 h, time 3 day): 15.6 mg/dL
CRE (72 h, time 3 day): 0.2 mg/dL
Ca (72 h, time 3 day): 10.9 mg/dL
Cl (72 h, time 3 day): 106.6 meq/L
DBIL (72 h, time 3 day): 0 mg/dL
GLC (72 h, time 3 day): 169 mg/dL
IP (72 h, time 3 day): 6.9 mg/dL
K (72 h, time 3 day): 4.6 meq/L
LDH (72 h, time 3 day): 209.6 IU/L
Na (72 h, time 3 day): 142 meq/L
PL (72 h, time 3 day): 138.8 mg/dL
RALB (72 h, time 3 day): 3.1 g/dL
TBIL (72 h, time 3 day): 0.006 mg/dL
TC (72 h, time 3 day): 71 mg/dL
TG (72 h, time 3 day): 113.8 mg/dL
TP (72 h, time 3 day): 5.6 g/dL
gamma-GTP (72 h, time 3 day): 1.4 IU/L
TERMINAL_BW ([…], time 7 day): 261 g
TERMINAL_BW ([…], time 14 day): 314.5 g
TERMINAL_BW ([…], time 28 day): 361.2 g
APTT ([…], time 7 day): 23.5 s
Bas ([…], time 7 day): 0%
Eos ([…], time 7 day): 1.4%
Fbg ([…], time 7 day): 282.6 mg/dL
Hb ([…], time 7 day): 13.9 g/dL
Ht ([…], time 7 day): 40.1%
Lym ([…], time 7 day): 83%
MCH ([…], time 7 day): 21.6 pg
MCHC ([…], time 7 day): 34.7%
MCV ([…], time 7 day): 62.2 fL
Mono ([…], time 7 day): 2.8%
Neu ([…], time 7 day): 11.8%
PT ([…], time 7 day): 15.8 s
Plat ([…], time 7 day): 123.4 x10_4/uL
RBC ([…], time 7 day): 645 x10_4/ul
Ret ([…], time 7 day): 3.9%
WBC ([…], time 7 day): 116 x10_2/uL
APTT ([…], time 14 day): 22.4 s
Bas ([…], time 14 day): 0%
Eos ([…], time 14 day): 1.2%
Fbg ([…], time 14 day): 327.4 mg/dL
Hb ([…], time 14 day): 13.8 g/dL
Ht ([…], time 14 day): 40.3%
Lym ([…], time 14 day): 85.2%
MCH ([…], time 14 day): 20.4 pg
MCHC ([…], time 14 day): 34.3%
MCV ([…], time 14 day): 59.5 fL
Mono ([…], time 14 day): 2%
Neu ([…], time 14 day): 10.6%
PT ([…], time 14 day): 15.5 s
Plat ([…], time 14 day): 132 x10_4/uL
RBC ([…], time 14 day): 676.6 x10_4/ul
Ret ([…], time 14 day): 3.8%
WBC ([…], time 14 day): 119.2 x10_2/uL
APTT ([…], time 28 day): 26 s
Bas ([…], time 28 day): 0%
Eos ([…], time 28 day): 1.4%
Fbg ([…], time 28 day): 312.2 mg/dL
Hb ([…], time 28 day): 15.8 g/dL
Ht ([…], time 28 day): 42.9%
Lym ([…], time 28 day): 84.2%
MCH ([…], time 28 day): 20.4 pg
MCHC ([…], time 28 day): 36.9%
MCV ([…], time 28 day): 55.4 fL
Mono ([…], time 28 day): 1.4%
Neu ([…], time 28 day): 12.2%
PT ([…], time 28 day): 16.4 s
Plat ([…], time 28 day): 110.1 x10_4/uL
RBC ([…], time 28 day): 775.2 x10_4/ul
Ret ([…], time 28 day): 2.2%
WBC ([…], time 28 day): 90.4 x10_2/uL
KIDNEY_L ([…], time 7 day): 1.1 g
KIDNEY_R ([…], time 7 day): 1.1 g
KIDNEY_TOTAL ([…], time 7 day): 2.1 g
KIDNEY_L ([…], time 14 day): 1.3 g
KIDNEY_R ([…], time 14 day): 1.2 g
KIDNEY_TOTAL ([…], time 14 day): 2.5 g
KIDNEY_L ([…], time 28 day): 1.3 g
KIDNEY_R ([…], time 28 day): 1.4 g
KIDNEY_TOTAL ([…], time 28 day): 2.7 g
LIVER ([…], time 7 day): 12.5 g
LIVER ([…], time 14 day): 14.7 g
LIVER ([…], time 28 day): 15.7 g
A/G ([…], time 7 day): 1.2
ALP ([…], time 7 day): 1617 IU/L
ALT ([…], time 7 day): 39.4 IU/L
AST ([…], time 7 day): 71.4 IU/L
BUN ([…], time 7 day): 17.6 mg/dL
CRE ([…], time 7 day): 0.2 mg/dL
Ca ([…], time 7 day): 10.8 mg/dL
Cl ([…], time 7 day): 107.4 meq/L
DBIL ([…], time 7 day): 0 mg/dL
GLC ([…], time 7 day): 182.2 mg/dL
IP ([…], time 7 day): 6.9 mg/dL
K ([…], time 7 day): 4.5 meq/L
LDH ([…], time 7 day): 204 IU/L
Na ([…], time 7 day): 141 meq/L
PL ([…], time 7 day): 140 mg/dL
RALB ([…], time 7 day): 3 g/dL
TBIL ([…], time 7 day): 0.002 mg/dL
TC ([…], time 7 day): 72.4 mg/dL
TG ([…], time 7 day): 119 mg/dL
TP ([…], time 7 day): 5.5 g/dL
gamma-GTP ([…], time 7 day): 1.2 IU/L
A/G ([…], time 14 day): 1.1
ALP ([…], time 14 day): 1499 IU/L
ALT ([…], time 14 day): 41 IU/L
AST ([…], time 14 day): 69 IU/L
BUN ([…], time 14 day): 18.2 mg/dL
CRE ([…], time 14 day): 0.2 mg/dL
Ca ([…], time 14 day): 10.8 mg/dL
Cl ([…], time 14 day): 107 meq/L
DBIL ([…], time 14 day): 0 mg/dL
GLC ([…], time 14 day): 170.2 mg/dL
IP ([…], time 14 day): 7.1 mg/dL
K ([…], time 14 day): 4.4 meq/L
LDH ([…], time 14 day): 142.6 IU/L
Na ([…], time 14 day): 143.2 meq/L
PL ([…], time 14 day): 145.8 mg/dL
RALB ([…], time 14 day): 3 g/dL
TBIL ([…], time 14 day): 0.004 mg/dL
TC ([…], time 14 day): 77.6 mg/dL
TG ([…], time 14 day): 98.2 mg/dL
TP ([…], time 14 day): 5.8 g/dL
gamma-GTP ([…], time 14 day): 2.8 IU/L
A/G ([…], time 28 day): 1.1
ALP ([…], time 28 day): 1273.6 IU/L
ALT ([…], time 28 day): 32.8 IU/L
AST ([…], time 28 day): 55 IU/L
BUN ([…], time 28 day): 18.2 mg/dL
CRE ([…], time 28 day): 0.2 mg/dL
Ca ([…], time 28 day): 10.5 mg/dL
Cl ([…], time 28 day): 106.4 meq/L
DBIL ([…], time 28 day): 0 mg/dL
GLC ([…], time 28 day): 185.8 mg/dL
IP ([…], time 28 day): 6.5 mg/dL
K ([…], time 28 day): 4.1 meq/L
LDH ([…], time 28 day): 118 IU/L
Na ([…], time 28 day): 145 meq/L
PL ([…], time 28 day): 131.8 mg/dL
RALB ([…], time 28 day): 3.2 g/dL
TBIL ([…], time 28 day): 0.004 mg/dL
TC ([…], time 28 day): 65.2 mg/dL
TG ([…], time 28 day): 112.2 mg/dL
TP ([…], time 28 day): 6.2 g/dL
gamma-GTP ([…], time 28 day): 2.6 IU/L
